Reference: ChEMBL document CHEMBL3407472, “Multi-parameter optimization of aza-follow-ups to BI 207524, a thumb pocket 1 HCV NS5B polymerase inhibitor. Part 2: Impact of lipophilicity on promiscuity and in vivo toxicity” (Bioorg Med Chem Lett, 2015)

How the values were obtained:
[1] = Volume of distribution at steady state in dog at 5 mg/kg, po and 2 mg/kg, iv; assay type: ADME, organism-based, Canis lupus familiaris; settings: in vivo, read-out: Vdss
[2] = AUC in dog at 5 mg/kg, po and 2 mg/kg, iv; assay type: ADME, organism-based, Canis lupus familiaris; settings: plasma
[3] = Cmax in dog at 5 mg/kg, po and 2 mg/kg, iv; assay type: ADME, organism-based, Canis lupus familiaris; settings: in vivo
Hepatitis C virus [4] = assay: Antiviral activity against Hepatitis C virus genotype 1a infected in human Huh cells assessed as inhibition of viral replication by RT-PCR-based replicon assay; assay type: functional, cell-based, Hepacivirus hominis; settings: subtype 1a
[5] = Bioavailability in rat at 5 mg/kg, po and 2 mg/kg, iv; assay type: ADME, organism-based; settings: in vivo
[6] = Clearance in rat at 5 mg/kg, po and 2 mg/kg, iv; assay type: ADME, organism-based; settings: in vivo
[7] = AUC in cynomolgous monkey at 5 mg/kg, po and 2 mg/kg, iv; assay type: ADME, organism-based, Macaca fascicularis; settings: cynomolgus monkey, plasma
[8] = Lipophilicity, log D of the compound at pH 7.4; assay type: physicochemical; settings: buffer
[9] = Clearance in dog at 5 mg/kg, po and 2 mg/kg, iv; assay type: ADME, organism-based, Canis lupus familiaris; settings: in vivo
Hepatitis C virus [10] = assay: Antiviral activity against Hepatitis C virus genotype 1b infected in human Huh cells assessed as inhibition of viral replication by RT-PCR-based replicon assay; assay type: functional, cell-based, Hepacivirus hominis
[11] = Bioavailability in cynomolgous monkey at 5 mg/kg, po and 2 mg/kg, iv; assay type: ADME, organism-based, Macaca fascicularis; settings: cynomolgus monkey, in vivo
[12] = Volume of distribution at steady state in rat at 5 mg/kg, po and 2 mg/kg, iv; assay type: ADME, organism-based; settings: in vivo, read-out: Vdss
[13] = Bioavailability in dog at 5 mg/kg, po and 2 mg/kg, iv; assay type: ADME, organism-based, Canis lupus familiaris; settings: in vivo
[14] = Cmax in rat at 5 mg/kg, po and 2 mg/kg, iv; assay type: ADME, organism-based; settings: in vivo
[15] = Clearance in cynomolgous monkey at 5 mg/kg, po and 2 mg/kg, iv; assay type: ADME, organism-based, Macaca fascicularis; settings: cynomolgus monkey, in vivo
[16] = Half life in dog at 5 mg/kg, po and 2 mg/kg, iv; assay type: ADME, organism-based, Canis lupus familiaris; settings: in vivo
[17] = Half life in rat liver microsomes at 2 uM; assay type: ADME
[18] = Half life in dog liver microsomes at 2 uM; assay type: ADME, Canis lupus familiaris
[19] = Ratio of drug uptake in liver to plasma of rat at 5 mg/kg, po and 2 mg/kg, iv after 6 to 8 hrs; assay type: ADME, organism-based
[20] = Permeability from apical to basolateral side of human Caco2 cells; assay type: ADME, cell-based; settings: Caco-2, read-out: permeability
[21] = Half life in human liver microsomes at 2 uM; assay type: ADME
[22] = target: Voltage-gated inwardly rectifying potassium channel KCNH2 (Homo sapiens, UniProt Q12809); assay: Inhibition of human ERG channel
Chain of Voltage-gated inwardly rectifying potassium channel KCNH2 (Q12809 whole entry): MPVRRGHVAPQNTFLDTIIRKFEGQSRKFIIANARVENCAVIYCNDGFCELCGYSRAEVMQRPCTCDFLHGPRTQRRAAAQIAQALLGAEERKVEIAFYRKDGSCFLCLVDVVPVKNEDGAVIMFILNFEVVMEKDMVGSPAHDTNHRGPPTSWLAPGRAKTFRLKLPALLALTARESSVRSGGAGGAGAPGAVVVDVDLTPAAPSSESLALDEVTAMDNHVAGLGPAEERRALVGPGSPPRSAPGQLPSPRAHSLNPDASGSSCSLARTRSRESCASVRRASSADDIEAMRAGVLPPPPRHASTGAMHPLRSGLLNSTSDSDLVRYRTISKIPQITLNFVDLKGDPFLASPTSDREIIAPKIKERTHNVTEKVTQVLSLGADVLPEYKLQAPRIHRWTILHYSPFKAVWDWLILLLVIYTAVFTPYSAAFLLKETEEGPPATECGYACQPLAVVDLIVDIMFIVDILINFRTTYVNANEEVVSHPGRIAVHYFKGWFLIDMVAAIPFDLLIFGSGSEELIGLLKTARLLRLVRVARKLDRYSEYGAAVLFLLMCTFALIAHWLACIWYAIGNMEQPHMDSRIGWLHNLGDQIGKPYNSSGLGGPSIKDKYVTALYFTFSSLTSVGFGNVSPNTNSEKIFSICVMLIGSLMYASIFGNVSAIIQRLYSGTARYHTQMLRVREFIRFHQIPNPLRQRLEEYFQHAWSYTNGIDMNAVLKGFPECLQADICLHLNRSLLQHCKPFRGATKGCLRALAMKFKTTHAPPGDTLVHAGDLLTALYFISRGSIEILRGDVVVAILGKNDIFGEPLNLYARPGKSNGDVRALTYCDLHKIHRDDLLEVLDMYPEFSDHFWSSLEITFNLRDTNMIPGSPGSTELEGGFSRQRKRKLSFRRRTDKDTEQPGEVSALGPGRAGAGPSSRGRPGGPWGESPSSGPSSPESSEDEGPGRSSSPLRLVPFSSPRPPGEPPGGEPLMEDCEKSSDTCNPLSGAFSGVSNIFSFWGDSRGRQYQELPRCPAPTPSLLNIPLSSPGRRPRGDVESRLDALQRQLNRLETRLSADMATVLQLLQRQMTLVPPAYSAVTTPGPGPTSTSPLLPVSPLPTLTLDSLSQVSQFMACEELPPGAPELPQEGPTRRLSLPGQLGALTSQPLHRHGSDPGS

[23] = Volume of distribution at steady state in cynomolgous monkey at 5 mg/kg, po and 2 mg/kg, iv; assay type: ADME, organism-based, Macaca fascicularis; settings: cynomolgus monkey, in vivo, read-out: Vdss
[24] = Half life in cynomolgous monkey at 5 mg/kg, po and 2 mg/kg, iv; assay type: ADME, organism-based, Macaca fascicularis; settings: cynomolgus monkey, in vivo
[25] = Half life in rat at 5 mg/kg, po and 2 mg/kg, iv; assay type: ADME, organism-based; settings: in vivo
[26] = Half life in cynomolgous monkey liver microsomes at 2 uM; assay type: ADME, Macaca fascicularis; settings: cynomolgus monkey
[27] = Induction of action potential duration in guinea pig papillary muscle cells at 30 uM; assay type: functional, Cavia porcellus
[28] = Cmax in cynomolgous monkey at 5 mg/kg, po and 2 mg/kg, iv; assay type: ADME, organism-based, Macaca fascicularis; settings: cynomolgus monkey, in vivo
[29] = AUC in rat at 5 mg/kg, po and 2 mg/kg, iv; assay type: ADME, organism-based; settings: plasma
Glucocorticoid receptor = target: T1, Glucocorticoid receptor (Homo sapiens, UniProt P04150); assay: Inhibition of glucocorticoid receptor (unknown origin)
T1 sequence (P04150 whole entry): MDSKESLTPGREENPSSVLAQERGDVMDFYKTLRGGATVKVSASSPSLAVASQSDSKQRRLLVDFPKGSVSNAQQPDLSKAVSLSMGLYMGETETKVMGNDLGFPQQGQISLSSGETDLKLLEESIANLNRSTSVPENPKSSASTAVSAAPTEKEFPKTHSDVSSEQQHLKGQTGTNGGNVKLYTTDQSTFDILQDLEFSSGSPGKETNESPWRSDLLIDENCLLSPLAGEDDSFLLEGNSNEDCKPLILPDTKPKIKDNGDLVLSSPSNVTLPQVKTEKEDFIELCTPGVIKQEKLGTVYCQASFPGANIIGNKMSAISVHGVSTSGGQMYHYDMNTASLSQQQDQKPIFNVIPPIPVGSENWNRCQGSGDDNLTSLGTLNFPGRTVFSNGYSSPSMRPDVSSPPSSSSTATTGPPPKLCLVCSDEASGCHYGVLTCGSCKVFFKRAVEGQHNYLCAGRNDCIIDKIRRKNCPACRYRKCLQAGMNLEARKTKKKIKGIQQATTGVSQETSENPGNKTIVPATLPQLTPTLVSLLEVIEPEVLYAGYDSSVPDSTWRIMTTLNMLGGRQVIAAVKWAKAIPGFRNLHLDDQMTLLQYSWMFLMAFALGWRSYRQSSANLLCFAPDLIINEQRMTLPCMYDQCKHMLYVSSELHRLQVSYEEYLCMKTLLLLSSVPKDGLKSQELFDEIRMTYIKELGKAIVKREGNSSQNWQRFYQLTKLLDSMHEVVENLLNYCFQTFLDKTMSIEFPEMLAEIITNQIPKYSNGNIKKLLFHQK

[30] = target: GABA-A receptor; agonist GABA site; assay: Inhibition of GABAA receptor (unknown origin); assay type: protein-complex assay, Homo sapiens
[31] = target: T2, Polyunsaturated fatty acid 5-lipoxygenase (Homo sapiens, UniProt P09917); assay: Inhibition of 5-LO (unknown origin)
T2 sequence (P09917 whole entry): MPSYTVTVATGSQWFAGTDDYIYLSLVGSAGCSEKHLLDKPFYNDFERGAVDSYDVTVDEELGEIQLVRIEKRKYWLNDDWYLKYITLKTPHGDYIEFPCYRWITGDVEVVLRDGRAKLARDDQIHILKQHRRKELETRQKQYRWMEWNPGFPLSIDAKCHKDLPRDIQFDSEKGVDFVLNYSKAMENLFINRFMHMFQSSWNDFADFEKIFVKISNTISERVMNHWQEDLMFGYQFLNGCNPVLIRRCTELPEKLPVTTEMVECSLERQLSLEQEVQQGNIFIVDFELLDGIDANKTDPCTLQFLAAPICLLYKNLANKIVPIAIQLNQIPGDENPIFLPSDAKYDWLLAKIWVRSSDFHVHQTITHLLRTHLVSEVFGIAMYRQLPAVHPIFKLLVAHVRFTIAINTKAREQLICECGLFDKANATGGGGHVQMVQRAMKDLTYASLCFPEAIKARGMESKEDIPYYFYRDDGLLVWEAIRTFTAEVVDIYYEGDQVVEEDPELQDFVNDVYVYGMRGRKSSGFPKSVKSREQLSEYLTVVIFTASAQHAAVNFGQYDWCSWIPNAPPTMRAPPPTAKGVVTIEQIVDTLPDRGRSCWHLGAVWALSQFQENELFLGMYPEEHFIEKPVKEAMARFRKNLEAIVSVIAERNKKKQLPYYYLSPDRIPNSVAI

D(1A) dopamine receptor = D(1A) dopamine receptor (Homo sapiens, UniProt P21728); assay: Inhibition of dopamine D1 receptor (unknown origin)
Chain of D(1A) dopamine receptor (P21728 whole entry): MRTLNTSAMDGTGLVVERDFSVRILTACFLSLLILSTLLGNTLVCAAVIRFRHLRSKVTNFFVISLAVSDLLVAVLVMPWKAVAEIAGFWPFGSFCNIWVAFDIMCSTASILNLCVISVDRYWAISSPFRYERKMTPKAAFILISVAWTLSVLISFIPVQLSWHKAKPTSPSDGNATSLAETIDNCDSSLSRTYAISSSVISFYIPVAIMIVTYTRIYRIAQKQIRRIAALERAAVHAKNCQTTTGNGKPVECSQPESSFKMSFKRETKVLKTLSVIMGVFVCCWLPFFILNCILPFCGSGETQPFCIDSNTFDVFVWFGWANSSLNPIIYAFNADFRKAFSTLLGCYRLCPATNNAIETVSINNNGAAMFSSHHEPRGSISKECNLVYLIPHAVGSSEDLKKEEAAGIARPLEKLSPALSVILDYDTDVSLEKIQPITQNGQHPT

[32] = target: T3, Alpha-2A adrenergic receptor (Homo sapiens, UniProt P08913); assay: Inhibition of alpha2A adrenergic receptor (unknown origin)
T3 sequence (P08913 whole entry): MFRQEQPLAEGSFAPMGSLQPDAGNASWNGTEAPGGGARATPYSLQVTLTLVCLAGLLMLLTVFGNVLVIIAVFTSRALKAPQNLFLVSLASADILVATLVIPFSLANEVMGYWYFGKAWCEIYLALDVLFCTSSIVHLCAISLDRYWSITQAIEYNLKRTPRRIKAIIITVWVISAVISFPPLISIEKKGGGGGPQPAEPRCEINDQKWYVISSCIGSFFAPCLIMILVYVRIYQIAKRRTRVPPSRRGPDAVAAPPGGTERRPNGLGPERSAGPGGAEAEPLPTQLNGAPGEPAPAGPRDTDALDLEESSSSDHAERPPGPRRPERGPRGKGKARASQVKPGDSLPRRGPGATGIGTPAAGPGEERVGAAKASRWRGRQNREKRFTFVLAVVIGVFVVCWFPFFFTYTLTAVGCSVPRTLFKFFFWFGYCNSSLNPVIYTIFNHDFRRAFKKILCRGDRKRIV

[33] = target: T4, Prostaglandin G/H synthase 2 (Homo sapiens, UniProt P35354); assay: Inhibition of COX2 (unknown origin)
T4 sequence (P35354 whole entry): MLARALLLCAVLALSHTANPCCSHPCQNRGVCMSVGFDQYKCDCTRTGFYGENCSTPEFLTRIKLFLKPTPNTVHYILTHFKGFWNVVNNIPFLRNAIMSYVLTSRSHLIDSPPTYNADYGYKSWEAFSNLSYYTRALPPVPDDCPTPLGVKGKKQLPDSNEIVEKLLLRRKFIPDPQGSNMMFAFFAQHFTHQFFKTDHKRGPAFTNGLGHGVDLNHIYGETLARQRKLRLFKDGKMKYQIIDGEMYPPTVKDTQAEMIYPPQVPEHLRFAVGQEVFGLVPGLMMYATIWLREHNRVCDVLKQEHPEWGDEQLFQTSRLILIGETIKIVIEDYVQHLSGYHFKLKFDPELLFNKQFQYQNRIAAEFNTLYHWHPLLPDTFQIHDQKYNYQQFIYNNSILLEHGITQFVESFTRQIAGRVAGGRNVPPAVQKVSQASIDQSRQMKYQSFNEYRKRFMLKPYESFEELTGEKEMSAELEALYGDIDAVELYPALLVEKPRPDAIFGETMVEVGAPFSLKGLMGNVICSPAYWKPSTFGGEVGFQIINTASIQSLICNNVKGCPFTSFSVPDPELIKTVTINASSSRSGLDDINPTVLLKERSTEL

[34] = target: T5, Amine oxidase [flavin-containing] A (Homo sapiens, UniProt P21397); assay: Inhibition of MAO-A (unknown origin)
T5 sequence (P21397 whole entry): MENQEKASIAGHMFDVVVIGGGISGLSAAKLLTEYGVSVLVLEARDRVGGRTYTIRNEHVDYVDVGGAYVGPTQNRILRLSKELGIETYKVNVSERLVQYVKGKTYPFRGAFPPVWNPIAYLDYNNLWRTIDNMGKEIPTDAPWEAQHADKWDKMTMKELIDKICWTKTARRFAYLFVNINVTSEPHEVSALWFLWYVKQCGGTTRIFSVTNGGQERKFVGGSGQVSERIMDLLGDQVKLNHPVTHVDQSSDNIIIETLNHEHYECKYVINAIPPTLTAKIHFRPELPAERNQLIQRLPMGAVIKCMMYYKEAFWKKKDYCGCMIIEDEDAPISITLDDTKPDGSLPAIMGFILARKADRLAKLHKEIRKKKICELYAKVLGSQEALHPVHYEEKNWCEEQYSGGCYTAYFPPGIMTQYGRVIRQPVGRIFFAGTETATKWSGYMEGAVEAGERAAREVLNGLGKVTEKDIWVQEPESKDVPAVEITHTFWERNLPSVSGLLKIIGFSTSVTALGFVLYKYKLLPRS

Cathepsin G = target: T6, Cathepsin G (Homo sapiens, UniProt P08311); assay: Inhibition of cathepsin G (unknown origin)
T6 sequence (P08311 whole entry): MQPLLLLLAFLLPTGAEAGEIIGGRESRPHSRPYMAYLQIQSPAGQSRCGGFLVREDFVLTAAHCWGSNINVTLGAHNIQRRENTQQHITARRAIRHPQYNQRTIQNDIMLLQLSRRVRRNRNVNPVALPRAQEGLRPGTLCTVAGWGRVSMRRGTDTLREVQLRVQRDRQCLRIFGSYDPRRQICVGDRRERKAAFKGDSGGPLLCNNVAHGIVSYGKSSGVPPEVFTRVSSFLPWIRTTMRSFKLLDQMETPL

CCOc1nc(NC(=O)C2(NC(=O)c3ccc4c(c3)c(C)c(-c3ccc(F)cn3)n4C3CCCCC3)CCC2)ccc1/C=C/C(=O)O
Vd [1]: 0.34 L/kg | AUC [2]: 26 µM·h | Cmax [3]: 5.9 µM | EC50 (Hepatitis C virus [4]): 0.022 µM | bioavailability [5]: 36% | clearance [6]: 4.2 mL/min/kg | AUC [7]: 14 µM·h | logD [8]: > 4.9 | clearance [9]: 1.9 mL/min/kg | EC50 (Hepatitis C virus [10]): 0.009 µM | bioavailability [11]: 45% | Vd [12]: 0.4 L/kg | bioavailability [13]: 42% | Cmax [14]: 4.5 µM | clearance [15]: 4.1 mL/min/kg | half-life [16]: 3 h | half-life at 2 µM [17]: 0.683 h | half-life at 2 µM [18]: 2.2 h | Kp [19]: 4 | Papp A→B [20]: 15 ×10⁻⁶ cm/s | half-life at 2 µM [21]: 1.72 h | IC50 [22]: 1.4 µM | Vd [23]: 0.34 L/kg | half-life [24]: 2.4 h | half-life [25]: 1.7 h | half-life at 2 µM [26]: 0.217 h | Activity [27]: 20% | Cmax [28]: 4.4 µM | AUC [29]: 11 µM·h

Cn1c(-c2ccccn2)c(C2CCCC2)c2ccc(C(=O)NC3(C(=O)Nc4ccc(/C=C/C(=O)O)cc4)CCC3)cc21 [BILB-1941]
IC50 (Glucocorticoid receptor): < 10 µM | IC50 [30]: < 10 µM | IC50 [31]: < 10 µM | IC50 (D(1A) dopamine receptor): < 10 µM | IC50 [32]: < 10 µM | IC50 [33]: < 10 µM | IC50 [34]: < 10 µM | IC50 (Cathepsin G): < 10 µM
